Read-outs that look alike come from different tables or passages of the source.
Experiments:
[1] = test system: H1975 (KRAS wild type human lung adenocarcinoma cell line); test: KRAS 3D-Cell Proliferation Assay, H1975 (CellTiter-Glo 3D, 7 days); type: cell-based; details: H1975 3D culture, read-out: Prolif H1975 3D ATP IC50
Method: (§1) Example 503: KRAS 3D-Cell Proliferation Assays. Cellular potencies of compounds are assessed by evaluating inhibition of proliferation in 3D cultures of homozygous mutant KRAS G12D human pancreatic cell lines (AsPC-1 and HPAC) as compared to a KRAS wild type human lung adenocarcinoma cell line (PC-9 and/or H1975). Cells are seeded into 384-well black round-bottom, ultra-low attachment assay plates in 50 uL cell growth medium (RPMI-1640 with 10% fetal bovine serum and 2 mM L-glutamine). After overnight incubation at 37° C. and 5% CO2, compounds solubilized in DMSO are added as dilution series to the wells in a total volume of 150 nL (0.3% DMSO final). The cells are incubated for 7 days at 37° C. and 5% CO2. Cell proliferation is quantitated by addition of 40 uL/well of CellTiter-GloO 3D (Promega), and the well contents are mixed 20× at high speed using liquid handling automation workstation (Bravo with 384-well head) and centrifuged at 1500 rpm for 2 minutes to eliminate bubbles. This reagent in combination with mechanical disruption releases the cellular ATP to promote activity in a luciferase-based enzyme/substrate chemiluminescent detection system. After a 30-minute incubation under ambient conditions with shaking and an additional 10 minutes without shaking, the luminescence is read on a plate reader (e.g. EnVision [PerkinElmer]). The results are normalized to percent inhibition based on the following control samples: DMSO (0% inhibition) and 1 uM staurosporine (100% inhibition). The normalized luminescence results are plotted against compound concentration, and the data are fit to a 4-parameter Hill equation to determine the IC50 values.

KRAS WT [2] = molecular target: T1, KRAS WT (Homo sapiens (Human), UniProt P01116); test: KRAS WT Biochemical Assay, BODIPY-GDP Exchange TR-FRET (Example 502; 0.06 nM KRAS WT, 15 nM GDP, 300 nM SOS1, 120-minute incubation); details: read-out: KRas HTRF IC50
T1 sequence (P01116-2 other isoform, or with tags, fused parts or gaps): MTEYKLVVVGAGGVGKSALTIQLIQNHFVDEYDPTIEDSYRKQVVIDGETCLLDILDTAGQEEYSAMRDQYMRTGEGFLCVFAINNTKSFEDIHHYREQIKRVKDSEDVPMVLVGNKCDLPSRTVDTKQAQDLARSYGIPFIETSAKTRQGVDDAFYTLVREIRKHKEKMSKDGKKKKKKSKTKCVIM
How it was run: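 IC50 from a 4-parameter Hill fit of percent inhibition, itself the TR-FRET 520/490 nm ratio scaled between DMSO and a fully inhibiting control. Reaction: 300 nM SOS1 and 300 nM BODIPY-GDP added to preformed 0.06 nM KRAS WT/15 nM GDP/Tb-streptavidin complex; 120 min incubation; pH 7.5 HEPES, MgCl2, DTT.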

KRAS G12D = KRAS G12D (Homo sapiens (Human), UniProt P01116, G12D); test: KRAS G12D LoEnz Biochemical Assay, BODIPY-GDP Exchange TR-FRET (SOS1-mediated nucleotide exchange); details: read-out: KRas (G12D) GDP HTRF IC50
Sequence of KRAS G12D (P01116-2 other isoform, or with tags, fused parts or gaps G12D): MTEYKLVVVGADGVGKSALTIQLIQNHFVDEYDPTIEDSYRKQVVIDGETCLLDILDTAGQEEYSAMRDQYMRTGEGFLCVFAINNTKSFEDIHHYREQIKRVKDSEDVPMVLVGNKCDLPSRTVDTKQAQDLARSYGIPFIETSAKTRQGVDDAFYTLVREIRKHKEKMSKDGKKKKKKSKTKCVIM

KRAS WT [3] = molecular target: T1, KRAS WT; test: KRAS WT Biochemical Assay, BODIPY-GDP Exchange TR-FRET (Example 501; 3 nM KRAS WT, 3 nM SOS1, 60-minute incubation)
How it was run: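 SOS1-mediated exchange assay: 3 nM biotin-KRAS WT with terbium-streptavidin, started with 3 nM SOS1 and 300 nM BODIPY-GDP, HEPES pH 7.5 with MgCl2. TR-FRET (520/490 nm) read after 60 min; normalized to DMSO and full-inhibition control, IC50 from 4-parameter Hill fit.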

[4] = test system: HPAC (homozygous mutant KRAS G12D human pancreatic cell line); test: KRAS 3D-Cell Proliferation Assay, HPAC (CellTiter-Glo 3D, 7 days); type: cell-based; details: HPAC 3D culture, read-out: Prolif HPAC 3D ATP IC50
Method: as §1

[5] = read-out: KRas(wt) GDP HTRF IC50

Structure (SMILES) | IC50 ([1]; Homo sapiens, NCI-H1975, 168 h) [µM] | IC50 (KRAS WT [2]) [nM] | IC50 (KRAS G12D) [nM] | IC50 (KRAS WT [3]; read-out: KRas HTRF IC50) [nM] | IC50 ([4]; Homo sapiens, HPAC, 168 h) [nM] | IC50 [1] [µM] | IC50 [4] [nM] | IC50 (KRAS WT [3]; [5]) [nM]
Cc1c(F)c(N)cc(-c2nc3c4c(nc(OC[C@@]56CCCN5C[C@H](F)[C@@H]6F)nc4c2F)N2C[C@H]4CC[C@H](N4)[C@H]2[C@H](C)O3)c1C(F)(F)F (single isomer, unassigned) [143 (isomer 3)] | 1.09 | 47.3 | 0.43 | – | – | – | – | –
Cc1nc(N)cc(-c2nc3c4c(nc(OC[C@H]5N(C)C[C@@]56CC6(F)F)nc4c2F)N2C[C@H]4CC[C@H](N4)[C@H]2[C@H](C(F)(F)F)O3)c1C(F)(F)F (single isomer, unassigned) [262 (isomer 2)] | 20 | – | 7.02 | 186 | – | – | – | –
Cc1c(F)c(N)cc(-c2nc3c4c(nc(OC[C@@]56CCN(C)C5COC6)nc4c2F)N2C[C@H]4CC[C@H](N4)[C@H]2[C@H](C)O3)c1C(F)(F)F (single isomer, unassigned) [258 (isomer 1)] | – | – | 0.09 | 14.9 | 5 | – | – | –
Cc1cc(N)c(Cl)c(-c2nc3c4c(nc(OC[C@@]56CCCN5C[C@H](F)C6)nc4c2Cl)N2C[C@H]4CC[C@H](N4)[C@H]2[C@H](C)O3)c1C(F)(F)F (single isomer, unassigned) [Compound 240 (atrop. 2)] | – | – | 0.14 | 15.1 | – | 1.06 | 1.88 | –
Cc1c(F)c(N)cc(-c2nc3c4c(nc(OC[C@@]56CCCN5C[C@H](F)C6)nc4c2F)N2C[C@H]4CC[C@H](N4)[C@H]2[C@@H](C(F)F)O3)c1C(F)(F)F (single isomer, unassigned) [238 (isomer 2)] | 20 | – | 13000 | 4800 | 2000 | – | – | –
Cc1c(F)c(N)cc(-c2nc3c4c(nc(OC[C@@]56CCCN5C[C@H](F)C6)nc4c2F)N2CCN[C@@H](C)[C@H]2[C@H](C)O3)c1C(F)(F)F (single isomer, unassigned) [234 (isomer 1)] | 8.57 | – | 1330 | 23300 | 2000 | – | – | –
Cc1cc(N)c(Cl)c(-c2nc3c4c(nc(OC[C@@]56CCCN5C[C@H](F)C6)nc4c2Cl)N2C[C@H]4CC[C@H](N4)[C@H]2[C@H](C)O3)c1C(F)(F)F (single isomer, unassigned) [Compound 240 (atrop. 1)] | – | – | 44.9 | 1080 | – | 6.48 | 594 | –
CC(c1cc(F)c(N)cc1-c1nc2c3c(nc(OC[C@@]45CCCN4C[C@H](F)C5)nc3c1F)N1C[C@H]3CC[C@H](N3)[C@H]1[C@H](C)O2)C(F)F (single isomer, unassigned) [181 (isomer 2)] | 7.26 | – | 50.4 | 3030 | 903 | – | – | –
Cc1c(F)c(N)cc(-c2nc3c4c(nc(OCC56CCN5CC(F)(F)C6)nc4c2F)N2C[C@H]4CC[C@H](N4)[C@H]2[C@H](C(F)(F)F)O3)c1C(F)(F)F (single isomer, unassigned) [263 (diast. 2)] | 0.336 | – | 0.53 | 15.4 | 15.4 | – | – | –
Cc1c(F)c(N)cc(-c2nc3c4c(nc(OC[C@H]5C[C@@H]6COCCN65)nc4c2F)N2C[C@H]4CC[C@H](N4)[C@H]2[C@H](C)O3)c1C(F)(F)F (single isomer, unassigned) [159 (diast. 1)] | 4.31 | 64 | 0.28 | – | – | – | – | –
Cc1nc(N)cc(-c2nc3c4c(nc(OCC5N(C)C[C@]56CC6(F)F)nc4c2F)N2C[C@H]4CC[C@H](N4)[C@H]2[C@H](C(F)(F)F)O3)c1C(F)(F)F (single isomer, unassigned) [262 (isomer 3)] | 20 | – | 41.1 | 1080 | 971 | – | – | –
Cc1c(F)c(N)cc(-c2nc3c4c(nc(OC[C@@]56CCCN5C[C@H](F)C6)nc4c2F)N2C[C@H]4CC[C@H](N4)[C@H]2[C@H](C(F)F)O3)c1C(F)(F)F (single isomer, unassigned) [238 (isomer 1)] | – | – | 7700 | 3810 | 2000 | – | – | –
Cc1nc(N)cc(-c2nc3c4c(nc(OCC5N(C)CC56CC6(F)F)nc4c2F)N2C[C@H]4CC[C@H](N4)[C@H]2[C@H](C(F)(F)F)O3)c1C(F)(F)F (single isomer, unassigned) [262 (isomer 4)] | 4.38 | – | 1.14 | 35.1 | 43.4 | – | – | –
C[C@@H]1Oc2nc(-c3c(Cl)c(N)c(F)c(F)c3C(F)(F)F)c(F)c3nc(OC[C@@]45CCCN4C[C@H](F)C5)nc(c23)N2C[C@H]3CC[C@H](N3)[C@@H]12 (atropisomer, axis not shown; (aS)) [Compound 106, 2-Chloro-5,6-difluoro-3-((5S,5aS,6S,9R)-1-fluoro-12-(((2R,7aS)-2-fluorotetrahydro-1H-pyrrolizin-7a(5H)-yl)methoxy)-5-methyl-5a,6,7,8,9,10-hexahydro-5H-4-oxa-3,10a,11,13,14-pentaaza-6,9-methanonaphtho[1,8-ab]heptalen-2-yl)-4-(trifluoromethyl)aniline] | – | – | – | – | – | 0.622 | – | –
Cc1nc(N)cc(-c2nc3c4c(nc(OC[C@H]5N(C)C[C@]56CC6(F)F)nc4c2F)N2C[C@H]4CC[C@H](N4)[C@H]2[C@H](C(F)(F)F)O3)c1C(F)(F)F (single isomer, unassigned) [262 (isomer 1)] | 20 | – | 31.9 | 668 | 475 | – | – | –
Cc1c(F)c(N)cc(-c2nc3c4c(nc(OC[C@@]56CCCN5C[C@H](F)C6)nc4c2F)N2CCN[C@H](C)[C@@H]2[C@H](C)O3)c1C(F)(F)F (single isomer, unassigned) [234 (isomer 3)] | 16.6 | – | 4810 | 4570 | 2000 | – | – | –
Cc1c(F)c(N)cc(-c2nc3c4c(nc(OC[C@H]5CC[C@@H]6CN(C)C(=O)CN56)nc4c2F)N2C[C@H]4CC[C@H](N4)[C@H]2[C@H](C)O3)c1C(F)(F)F (single isomer, unassigned) [131 (isomer 4)] | – | 195 | 1.14 | – | – | – | 90 | –
Cc1c(F)c(N)cc(-c2nc3c4c(nc(OC[C@@]56CCCN5C[C@H](F)C6)nc4c2F)N2C[C@H]4CC[C@H](N4)[C@H]2[C@H](C)O3)c1C(F)(F)F [Compound 6, 2-Fluoro-5-((5S,5aS,6S,9R)-1-fluoro-12-(((2R,7aS)-2-fluorotetrahydro-1H-pyrrolizin-7a(5H)-yl)methoxy)-5-methyl-5a,6,7,8,9,10-hexahydro-5H-4-oxa-3,10a,11,13,14-pentaaza-6,9-methanonaphtho[1,8-ab]heptalen-2-yl)-3-methyl-4-(trifluoromethyl)aniline] | – | 0.548 | 0.074 | – | – | – | – | 0.48
Cc1c(F)c(N)cc(-c2nc3c4c(nc(OC[C@@H]5C[C@@H](F)[C@H]6CCCN56)nc4c2F)N2C[C@H]4CC[C@H](N4)[C@H]2[C@H](C)O3)c1C(F)(F)F (single isomer, unassigned) [Compound 160 (diast. 1)] | 1 | 31.3 | 0.14 | – | – | – | – | –
Cc1c(F)c(N)cc(-c2nc3c4c(nc(OC[C@H]5COC[C@H]6CCCN65)nc4c2F)N2C[C@H]4CC[C@H](N4)[C@H]2[C@H](C)O3)c1C(F)(F)F (single isomer, unassigned) [121 (isomer 1)] | 1.34 | 108 | 0.68 | – | – | – | – | –
C=C1CN2CCC[C@@]2(COc2nc3c4c(nc(-c5cc(O)cc6cccc(CC)c56)c(F)c4n2)O[C@@H](C)[C@@H]2[C@@H]4CC[C@H](CN32)N4)C1 [Compound 80] | – | 3.48 | 0.068 | – | – | – | – | 3.39
Cc1nc(N)cc(-c2nc3c4c(nc(OC[C@]56CCN5CC(F)(F)C6)nc4c2F)N2C[C@H]4CC[C@H](N4)[C@H]2[C@H](C(F)(F)F)O3)c1C(F)(F)F (single isomer, unassigned) [252 (isomer 2)] | 20 | – | 5.89 | 159 | – | – | – | –
C[C@@H]1Oc2nc(-c3cc(N)c(F)cc3[C@H](C)C(F)F)c(F)c3nc(OC[C@@]45CCCN4C[C@H](F)C5)nc(c23)N2C[C@H]3CC[C@H](N3)[C@@H]12 (single isomer, unassigned) [181 (isomer 1)] | – | 10900 | 159 | – | 2000 | – | – | –
